Data taken from PubChem BioAssay AID256 (DTP/NCI, 2004).
“And” between values parts separate entries of the source, which are not always exact repeats. Equal values may be shown once. Toxic doses and inconclusive results are not listed.

Tested on: CD2F1 mice, L1210 leukemia ip, survival T/C
Assay: NCI In Vivo Anticancer Drug Screen. Data for tumor model L1210 Leukemia (intraperitoneal) in CD2F1 (CDF1) mice
Conditions: higher = longer survival
Method in brief: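 Compound-dosed mice with transplantable tumor versus matched vehicle controls; endpoint ratio T/C reported.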

[1] = endpoint: mean survival time, dose: 100.0 mg/kg/injection, schedule: Q01DX001 (ip), vehicle: saline with Tween-80
[2] = endpoint: mean survival time, dose: 200.0 mg/kg/injection, schedule: Q01DX001 (ip), vehicle: saline with Tween-80
[3] = endpoint: mean survival time, dose: 400.0 mg/kg/injection, schedule: Q01DX001 (ip), vehicle: saline with Tween-80
[4] = endpoint: mean survival time, dose: 100.0 mg/kg/injection, schedule: Q01DX009 (ip), vehicle: saline with Tween-80
[5] = endpoint: mean survival time, dose: 100.0 mg/kg/injection, schedule: Q04DX003 (ip), vehicle: saline with Tween-80
[6] = endpoint: mean survival time, dose: 200.0 mg/kg/injection, schedule: Q04DX003 (ip), vehicle: saline with Tween-80
[7] = endpoint: mean survival time, dose: 400.0 mg/kg/injection, schedule: Q04DX003 (ip), vehicle: saline with Tween-80
[8] = endpoint: mean survival time, dose: 12.5 mg/kg/injection, schedule: Q01DX009 (ip), vehicle: saline with Tween-80
[9] = endpoint: mean survival time, dose: 25.0 mg/kg/injection, schedule: Q01DX009 (ip), vehicle: saline with Tween-80
[10] = endpoint: mean survival time, dose: 50.0 mg/kg/injection, schedule: Q01DX009 (ip), vehicle: saline with Tween-80
[11] = endpoint: mean survival time, dose: 200.0 mg/kg/injection, schedule: Q01DX009 (ip), vehicle: saline with Tween-80
[12] = endpoint: mean survival time, dose: 100.0 mg/kg/injection, schedule: Q04DX003 (ip), vehicle: saline
[13] = endpoint: mean survival time, dose: 200.0 mg/kg/injection, schedule: Q04DX003 (ip), vehicle: saline
[14] = endpoint: mean survival time, dose: 400.0 mg/kg/injection, schedule: Q04DX003 (ip), vehicle: saline
[15] = endpoint: mean survival time, dose: 100.0 mg/kg/injection, schedule: Q01DX001 (ip), vehicle: saline
[16] = endpoint: mean survival time, dose: 200.0 mg/kg/injection, schedule: Q01DX001 (ip), vehicle: saline
[17] = endpoint: mean survival time, dose: 100.0 mg/kg/injection, schedule: Q04DX002 (ip), vehicle: saline with Tween-80
[18] = endpoint: mean survival time, dose: 200.0 mg/kg/injection, schedule: Q04DX002 (ip), vehicle: saline with Tween-80
[19] = endpoint: mean survival time, dose: 400.0 mg/kg/injection, schedule: Q04DX002 (ip), vehicle: saline with Tween-80

c1ccc(/C(N=NC(c2ccccc2)(c2ccccc2)c2ccccc2)=C(/N=NC(c2ccccc2)(c2ccccc2)c2ccccc2)c2ccccc2)cc1
T/C [1]: 91 % of control
T/C [2]: 101 % of control
T/C [3]: 89 % of control

O=C1C(=O)c2ccccc2C(O)=C1[N+](=O)[O-]
T/C [4]: 96 % of control
T/C [5]: 100 % of control
T/C [6]: 103 % of control
T/C [7]: 112 % of control

CC1Sc2ccccc2-c2[nH]c3ccccc3c21 (stereo unspecified)
T/C [5]: 97 % of control
T/C [6]: 87 % of control
T/C [7]: 90 % of control

Nc1ccc2ccccc2c1N=Nc1ccc(C(O)C(N)CO)cc1 (stereo unspecified)
T/C (endpoint: mean survival time, dose: 6.25 mg/kg/injection, schedule: Q04DX003 (ip), vehicle: saline with Tween-80): 100 % of control
T/C (endpoint: mean survival time, dose: 12.5 mg/kg/injection, schedule: Q04DX003 (ip), vehicle: saline with Tween-80): 96 % of control
T/C (endpoint: mean survival time, dose: 25.0 mg/kg/injection, schedule: Q04DX003 (ip), vehicle: saline with Tween-80): 94 % of control

Oc1cc2ccccc2c(-c2c(O)c(O)cc3ccccc23)c1O
T/C [8]: 103 % of control
T/C [9]: 100 % of control and 103 % of control
T/C [10]: 103 % of control and 105 % of control
T/C [4]: 100 % of control and 109 % of control
T/C [11]: 96 % of control

Clc1nc(Cl)nc(-c2cn(-c3ccccc3)c3ccccc23)n1
T/C [4]: 95 % of control
T/C [5]: 89 % of control
T/C [11]: 95 % of control
T/C [6]: 97 % of control
T/C (endpoint: mean survival time, dose: 400.0 mg/kg/injection, schedule: Q01DX009 (ip), vehicle: saline with Tween-80): 96 % of control
T/C [7]: 98 % of control

CC(C)OC(=O)c1cc([N+](=O)[O-])cc([N+](=O)[O-])c1Sc1ncnc2nc[nH]c12
T/C (endpoint: mean survival time, dose: 0.63 mg/kg/injection, schedule: Q01DX005 (ip), vehicle: other): 115 % of control
T/C (endpoint: mean survival time, dose: 1.25 mg/kg/injection, schedule: Q01DX005 (ip), vehicle: other): 118 % of control
T/C (endpoint: mean survival time, dose: 2.5 mg/kg/injection, schedule: Q01DX005 (ip), vehicle: other): 115 % of control
T/C (endpoint: mean survival time, dose: 18.8 mg/kg/injection, schedule: Q01DX005 (ip), vehicle: other): 156 % of control

COc1ccc(C(C)C(C)=O)cc1 (stereo unspecified)
T/C [8]: 91 % of control
T/C [9]: 91 % of control
T/C [10]: 95 % of control

COC(=O)Nc1nc2ccc(SC)cc2c(=O)[nH]1
T/C (endpoint: median survival time, dose: 25.0 mg/kg/injection, schedule: Q01DX009 (ip), vehicle: Klucel (hydroxypropylcellulose) (HPC)): 98 % of control
T/C (endpoint: median survival time, dose: 50.0 mg/kg/injection, schedule: Q01DX009 (ip), vehicle: Klucel (hydroxypropylcellulose) (HPC)): 98 % of control
T/C (endpoint: median survival time, dose: 100.0 mg/kg/injection, schedule: Q01DX009 (ip), vehicle: Klucel (hydroxypropylcellulose) (HPC)): 98 % of control
T/C (endpoint: median survival time, dose: 200.0 mg/kg/injection, schedule: Q01DX009 (ip), vehicle: Klucel (hydroxypropylcellulose) (HPC)): 112 % of control

COC1OC(CO)C(OC(=O)Nc2ccccc2)C(OC(=O)Nc2ccccc2)C1O (stereo unspecified)
T/C [1]: 87 % of control
T/C [3]: 95 % of control

NCC1OC(n2cnc3c(N)ncnc32)C(O)C1O (stereo unspecified)
T/C (endpoint: mean survival time, dose: 12.5 mg/kg/injection, schedule: Q01DX005 (ip), vehicle: Klucel (hydroxypropylcellulose) (HPC)): 109 % of control
T/C (endpoint: mean survival time, dose: 25.0 mg/kg/injection, schedule: Q01DX005 (ip), vehicle: Klucel (hydroxypropylcellulose) (HPC)): 107 % of control
T/C (endpoint: mean survival time, dose: 50.0 mg/kg/injection, schedule: Q01DX005 (ip), vehicle: Klucel (hydroxypropylcellulose) (HPC)): 115 % of control
T/C (endpoint: mean survival time, dose: 100.0 mg/kg/injection, schedule: Q01DX005 (ip), vehicle: Klucel (hydroxypropylcellulose) (HPC)): 115 % of control

Clc1cccc(N=Cc2ccc3c(c2)OCO3)c1Cl
T/C (endpoint: mean survival time, dose: 100.0 mg/kg/injection, schedule: Q01DX001 (ip), vehicle: Klucel (hydroxypropylcellulose) (HPC)): 100 % of control
T/C (endpoint: mean survival time, dose: 200.0 mg/kg/injection, schedule: Q01DX001 (ip), vehicle: Klucel (hydroxypropylcellulose) (HPC)): 97 % of control
T/C (endpoint: mean survival time, dose: 400.0 mg/kg/injection, schedule: Q01DX001 (ip), vehicle: Klucel (hydroxypropylcellulose) (HPC)): 103 % of control

CC(C#N)(Nc1ccccc1)c1ccccc1 (stereo unspecified)
T/C [12]: 102 % of control
T/C [13]: 103 % of control
T/C [14]: 96 % of control

c1ccc2n[se]nc2c1
T/C (endpoint: mean survival time, dose: 3.13 mg/kg/injection, schedule: Q01DX009 (ip), vehicle: saline): 98 % of control
T/C (endpoint: mean survival time, dose: 3.13 mg/kg/injection, schedule: Q04DX003 (ip), vehicle: saline): 97 % of control
T/C (endpoint: mean survival time, dose: 6.25 mg/kg/injection, schedule: Q01DX009 (ip), vehicle: saline): 94 % of control
T/C (endpoint: mean survival time, dose: 6.25 mg/kg/injection, schedule: Q04DX003 (ip), vehicle: saline): 101 % of control
T/C (endpoint: mean survival time, dose: 12.5 mg/kg/injection, schedule: Q01DX009 (ip), vehicle: saline): 96 % of control
T/C (endpoint: mean survival time, dose: 12.5 mg/kg/injection, schedule: Q04DX003 (ip), vehicle: saline): 103 % of control

O=C(O)CCc1ccccc1CC(=O)O
T/C [5]: 98 % of control
T/C [6]: 98 % of control
T/C [7]: 97 % of control

C=C(Br)CNC(=O)CCCl
T/C (endpoint: mean survival time, dose: 1.56 mg/kg/injection, schedule: Q01DX009 (ip), vehicle: other): 102 % of control
T/C (endpoint: mean survival time, dose: 3.13 mg/kg/injection, schedule: Q01DX009 (ip), vehicle: other): 103 % of control
T/C (endpoint: mean survival time, dose: 6.25 mg/kg/injection, schedule: Q01DX009 (ip), vehicle: other): 100 % of control
T/C (endpoint: mean survival time, dose: 6.25 mg/kg/injection, schedule: Q04DX003 (ip), vehicle: other): 103 % of control
T/C (endpoint: mean survival time, dose: 12.5 mg/kg/injection, schedule: Q04DX003 (ip), vehicle: other): 100 % of control
T/C (endpoint: mean survival time, dose: 25.0 mg/kg/injection, schedule: Q04DX003 (ip), vehicle: other): 105 % of control

CC(C)n1cnc2c(=S)nc[nH]c21
T/C (endpoint: mean survival time, dose: 41.0 mg/kg/injection, schedule: Q01DX Z (ip), vehicle: saline): 121 % of control
T/C (endpoint: mean survival time, dose: 94.0 mg/kg/injection, schedule: Q01DX Z (ip), vehicle: saline): 171 % of control

O=C(O)CCCCCCCCCO
T/C [1]: 91 % of control
T/C [2]: 87 % of control
T/C [3]: 86 % of control

Cc1cccc(NC(=O)/C=C/C(=O)O)c1
T/C [4]: 94 % of control
T/C [11]: 100 % of control

CN(C)C(=S)SCC(=O)O
T/C [12]: 95 % of control
T/C [13]: 96 % of control
T/C [14]: 102 % of control

CSc1nc(N)c2c(ncn2C2OC(CO)C(O)C2O)n1 (stereo unspecified)
T/C [15]: 105 % of control
T/C [16]: 100 % of control
T/C (endpoint: mean survival time, dose: 400.0 mg/kg/injection, schedule: Q01DX001 (ip), vehicle: saline): 97 % of control

C=CCOP(=O)(OCC=C)C1(Cl)C(Cl)=C(Cl)C(=O)C(Cl)=C1Cl
T/C (endpoint: mean survival time, dose: 25.0 mg/kg/injection, schedule: Q01DX009 (ip), vehicle: saline + alcohol): 96 % of control
T/C (endpoint: mean survival time, dose: 50.0 mg/kg/injection, schedule: Q01DX009 (ip), vehicle: saline + alcohol): 96 % of control
T/C (endpoint: mean survival time, dose: 100.0 mg/kg/injection, schedule: Q01DX009 (ip), vehicle: saline + alcohol): 96 % of control
T/C [4]: 100 % of control

Fc1ccc(NC2(c3nnnn3C3CCCCC3)CCN(Cc3ccccc3)CC2)cc1
T/C [1]: 95 % of control
T/C [2]: 102 % of control
T/C [3]: 101 % of control

CC1C=CCC2C(=O)OC(=O)C12 (stereo unspecified)
T/C [12]: 94 % of control
T/C [13]: 95 % of control
T/C [14]: 101 % of control

COc1cc(CCCCl)cc(OC)c1OC
T/C [17]: 100 % of control
T/C [18]: 100 % of control
T/C [19]: 103 % of control

O=C(O)CC(NCc1ccccc1)C(=O)O (stereo unspecified)
T/C [5]: 103 % of control
T/C [6]: 100 % of control
T/C [7]: 97 % of control

[Ni+2].[S-]Cc1ccccc1.[S-]Cc1ccccc1
T/C [15]: 100 % of control
T/C [16]: 96 % of control

O=C(c1ccccc1)c1ccc2cc(O)ccc2c1
T/C [1]: 102 % of control
T/C [17]: 94 % of control
T/C [2]: 92 % of control
T/C [18]: 90 % of control
T/C [3]: 96 % of control
T/C [19]: 86 % of control

N#C/C(=C\C1CCCCC1Cl)C1CCC([N+](=O)[O-])CC1 (stereo unspecified)
T/C [17]: 91 % of control
T/C [19]: 87 % of control
